In ChEMBL document CHEMBL1201862, “PubChem BioAssay data set” (2004):
Calls of active or inactive are those of the source.

Experiments:
[1] = NIH-3T3 fibroblast cytotoxicity, dose response, cytotoxicity control, cell-based, fluorescence, Alamar Blue, secondary assay (AID 2327); type: functional;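 note: NIH-3T3 mouse fibroblasts cultured with fluconazole at 8 µg/mL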
[2] = fluconazole-exposed Candida albicans growth modulators – fluorescence, retest, confirmation (AID 2467); type: functional, cell-based
[3] = molecular target: T1, Heat shock factor protein 1 (Mus musculus, UniProt P38532); experiment: enhancement of HSF1-driven luciferase signal – cell-based, NIH3T3, luminescence, dose retest, confirmation (AID 435004); type: functional;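 note: stress induced by proteasome inhibitor MG132 added 30 min after compound; luciferase reporter driven by HSF1 response element in NIH3T3 cells; actives raise luminescence as potentiators of the MG132 stress response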
T1 sequence (P38532 whole entry): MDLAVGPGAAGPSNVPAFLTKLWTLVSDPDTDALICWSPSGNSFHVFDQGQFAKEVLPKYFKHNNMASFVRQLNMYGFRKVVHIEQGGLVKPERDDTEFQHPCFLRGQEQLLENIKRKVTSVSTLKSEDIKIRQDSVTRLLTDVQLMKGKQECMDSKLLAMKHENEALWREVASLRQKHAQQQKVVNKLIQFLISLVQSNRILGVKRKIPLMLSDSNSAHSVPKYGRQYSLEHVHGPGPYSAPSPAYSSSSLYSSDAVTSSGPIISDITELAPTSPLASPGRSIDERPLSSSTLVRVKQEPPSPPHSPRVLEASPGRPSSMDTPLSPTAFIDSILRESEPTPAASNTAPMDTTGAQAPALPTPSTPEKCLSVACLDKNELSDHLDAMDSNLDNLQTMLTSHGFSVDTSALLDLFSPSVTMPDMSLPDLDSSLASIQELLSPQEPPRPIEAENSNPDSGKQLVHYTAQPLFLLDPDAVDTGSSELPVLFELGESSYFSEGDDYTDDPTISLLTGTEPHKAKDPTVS

[4] = molecular target: T1, Heat shock factor protein 1; experiment: decrease of HSF1-responsive luciferase luminescence – cell-based, NIH3T3, dose retest, confirmation (AID 2382); type: functional;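 note: NIH3T3 fibroblasts with HSF1-driven luciferase reporter stressed by proteasome inhibitor MG132; luminescence from HSF1-driven luciferase expression after 8 hours of MG132 stress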
[5] = system: Streptococcus sp. 'group A'; experiment: Streptococcus pyogenes SK(-)GAS viability under kanamycin – luminescence, BacTiterGlo, confirmation, counter-screen for streptokinase expression inhibitor project, dose response (AID 1900); type: functional, organism-based
Streptokinase A = molecular target: T2, Streptokinase A (Streptococcus pyogenes serotype M1, UniProt P10520); experiment: viability-normalized secreted streptokinase activity reduction – plasminogen activation absorbance, OD405, dose response (AID 1914); type: functional, Streptococcus pyogenes M1 GAS;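 note: secreted streptokinase activity via plasminogen activation per viability signal from cell pellet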
T2 sequence (P10520 whole entry): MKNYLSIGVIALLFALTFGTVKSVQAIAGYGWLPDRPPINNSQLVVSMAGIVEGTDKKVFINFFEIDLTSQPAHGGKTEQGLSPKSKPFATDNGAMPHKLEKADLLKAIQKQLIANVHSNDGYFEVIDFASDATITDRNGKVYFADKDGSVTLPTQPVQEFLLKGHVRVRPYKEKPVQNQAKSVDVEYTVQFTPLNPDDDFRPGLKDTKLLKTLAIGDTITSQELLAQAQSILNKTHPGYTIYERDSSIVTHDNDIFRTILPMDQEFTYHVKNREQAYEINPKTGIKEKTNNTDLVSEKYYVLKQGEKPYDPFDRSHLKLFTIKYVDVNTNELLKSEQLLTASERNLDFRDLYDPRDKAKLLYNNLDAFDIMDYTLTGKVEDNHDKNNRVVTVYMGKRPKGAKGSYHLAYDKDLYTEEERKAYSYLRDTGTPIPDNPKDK

Streptococcus = experiment: GAS UMAA2166 growth inhibition – luminescence, BacTiterGlo, counter-screen for streptokinase expression inhibitor project, dose response (AID 1915); type: functional, organism-based;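 note: potency for reduction of bacterial viability or growth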
[6] = Luminescence Cell-Based Dose Retest to Confirm Inhibitors of Cancer Stem Cells. [Related pubchem assays (depositor defined):AID2717, AID2721]; type: functional; conditions: Homo sapiens
[7] = reduction of Shn3 3'UTR-driven luciferase in osteoblasts – cell-based, Clone20 osteoblasts, firefly luciferase, cherry-picked, dose response (AID 624132); type: functional;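 note: firefly luciferase luminescence from reporter carrying the Shn3 3'UTR in osteoblasts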
[8] = loss of viability in HepG2 cells – cell-based, CellTiter-Glo, cherry-picked, cytotoxicity control for Shn3 inhibitor project, dose response (AID 624134); type: functional
[9] = non-specific 3'UTR reporter inhibition in Clone20-Shn3RL – cell-based, Renilla luciferase, cherry-picked, counter-screen for Shn3 inhibitor project, dose response (AID 624133); type: functional
Cytochrome P450 2C19 = Cytochrome P450 2C19 (Homo sapiens, UniProt P33261); experiment: Cytochrome panel assay with activity outcomes. Panel member name: p450-cyp2c19 Compounds with AC50 equal or less than 10 uM are considered active; type: functional; conditions: read-out: AC50
Cytochrome P450 3A4 = Cytochrome P450 3A4 (Homo sapiens, UniProt P08684);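 note: CYP3A4 tested as one member of a cytochrome P450 panel screen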
Cytochrome P450 2C9 = Cytochrome P450 2C9 (Homo sapiens, UniProt P11712)
[10] = Luminescence Cell-Based Dose Response HTS to Identify Activators of Luciferase Translation or Activity in H4 […] Cells. [Related pubchem assays: 1829 (Project Summary), 1814 (Primary HTS)]; type: functional
H4 = experiment: Luminescence Cell-Based Dose Response HTS to Identify Activators of 5'UTR Stem-Loop Driven Prion Protein mRNA Translation in H4 Neuroglioblastoma Cells. [Related pubchem assays: 1829 (Project Summary), 1814 (Primary HTS)]; type: functional; conditions: Homo sapiens

Sequence of Cytochrome P450 3A4 (P08684 whole entry): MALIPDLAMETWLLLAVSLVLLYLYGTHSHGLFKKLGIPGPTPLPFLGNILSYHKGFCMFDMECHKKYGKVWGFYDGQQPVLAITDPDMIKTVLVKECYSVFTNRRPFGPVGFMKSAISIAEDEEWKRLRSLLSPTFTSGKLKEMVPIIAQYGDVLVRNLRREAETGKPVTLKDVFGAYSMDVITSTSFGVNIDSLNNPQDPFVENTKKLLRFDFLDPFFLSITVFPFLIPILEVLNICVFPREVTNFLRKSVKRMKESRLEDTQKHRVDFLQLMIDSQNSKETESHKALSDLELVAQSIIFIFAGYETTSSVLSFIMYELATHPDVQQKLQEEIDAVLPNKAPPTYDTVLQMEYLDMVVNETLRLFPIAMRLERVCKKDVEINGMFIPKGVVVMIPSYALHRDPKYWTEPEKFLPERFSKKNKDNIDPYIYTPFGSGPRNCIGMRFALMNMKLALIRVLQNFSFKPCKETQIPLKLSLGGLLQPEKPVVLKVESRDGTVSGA
Sequence of Cytochrome P450 2C19 (P33261 whole entry): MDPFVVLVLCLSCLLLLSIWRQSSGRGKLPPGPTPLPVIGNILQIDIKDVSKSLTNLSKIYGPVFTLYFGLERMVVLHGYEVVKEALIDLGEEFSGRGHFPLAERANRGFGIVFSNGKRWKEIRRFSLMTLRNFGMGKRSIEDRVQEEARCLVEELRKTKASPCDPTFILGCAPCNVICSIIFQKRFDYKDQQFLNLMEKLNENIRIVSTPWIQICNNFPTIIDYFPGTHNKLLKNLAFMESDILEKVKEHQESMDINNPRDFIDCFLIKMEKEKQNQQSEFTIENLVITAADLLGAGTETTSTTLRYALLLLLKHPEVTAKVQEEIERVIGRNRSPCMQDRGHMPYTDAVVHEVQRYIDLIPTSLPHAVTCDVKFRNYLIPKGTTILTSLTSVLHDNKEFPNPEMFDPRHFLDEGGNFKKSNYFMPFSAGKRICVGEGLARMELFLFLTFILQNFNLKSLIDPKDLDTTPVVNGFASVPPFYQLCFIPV
Sequence of Cytochrome P450 2C9 (P11712 whole entry): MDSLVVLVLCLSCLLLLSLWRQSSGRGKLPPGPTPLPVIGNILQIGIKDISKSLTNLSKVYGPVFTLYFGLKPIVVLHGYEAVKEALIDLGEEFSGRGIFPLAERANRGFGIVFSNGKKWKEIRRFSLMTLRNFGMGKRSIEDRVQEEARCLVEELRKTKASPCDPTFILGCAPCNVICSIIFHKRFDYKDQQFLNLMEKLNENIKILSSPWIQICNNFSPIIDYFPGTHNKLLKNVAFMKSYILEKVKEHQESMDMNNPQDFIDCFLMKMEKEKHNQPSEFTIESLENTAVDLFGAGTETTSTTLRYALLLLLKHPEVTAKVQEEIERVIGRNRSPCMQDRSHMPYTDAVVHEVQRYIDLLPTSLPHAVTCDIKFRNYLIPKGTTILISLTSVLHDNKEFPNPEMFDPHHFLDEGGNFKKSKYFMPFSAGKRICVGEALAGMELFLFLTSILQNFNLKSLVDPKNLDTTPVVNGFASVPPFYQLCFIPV

Question: Which EC50 [1] does the source give for `Cc1cc(-c2cc(C(=O)O)c3ccccc3n2)c(C)s1` here?
Answer: The EC50 was > 160 µM (inactive).

Question: What about the EC50 [2] of the same compound?
Answer: The EC50 was 3.94 µM (active).

Question: Which results are given for `CCCc1cc(O)nc(SCc2csc(-c3ccccc3)n2)n1`?
Answer: EC50 [1]: > 160 µM (inactive); EC50 [2]: 2.81 µM (active)

Question: Which EC50 [3] does the source give for `CCN(CC)C(S)=Nc1ccc(Cl)c(Cl)c1` here?
Answer: Its EC50 is > 260 µM (inactive).

Question: Which EC50 [4] does the source give for `NC(=O)CN1CCCC1=O` here?
Answer: The EC50 was > 195 µM (not active).

Question: For `COc1cc(C(=O)OCc2cc(=O)c(O)co2)ccc1OC(F)F`, which EC50 [1] is on record?
Answer: Its EC50 is > 160 µM (inactive).

Question: What about the EC50 [2] of the same compound?
Answer: Its EC50 is > 38 µM (not active).

Question: For `CNC(=O)/C(C#N)=C\c1cc(C)n(-c2ccc(N3CCOCC3)cc2)c1C`, which EC50 [5] is on record?
Answer: Its EC50 is 30.4 µM (active).

Question: And the EC50 (Streptokinase A)?
Answer: The EC50 was > 150 µM (not active).

Question: And the EC50 (Streptococcus)?
Answer: Its EC50 is 98.2 µM (active).

Question: Which EC50 [1] does the source give for `CNc1ccc(OC)cc1-n1cnc(-c2ccc([N+](=O)[O-])cc2)c1` here?
Answer: Its EC50 is > 150 µM (inactive).

Question: And the EC50 [2]?
Answer: The EC50 was > 38 µM (not active).

Question: Which AC50 [6] does the source give for `O=C(CN1CCCCCC1)Nc1ccccc1Oc1ccccc1` here?
Answer: The AC50 was 0.493 µM (active).

Question: For `CCc1cccc(NC(=O)c2cccc(S(=O)(=O)N3CCN(C)CC3)c2)c1`, which EC50 [3] is on record?
Answer: The EC50 was > 260 µM (inactive).

Question: For `Cc1ccc(Cn2ccc(=O)c(OCc3c(Cl)cccc3Cl)c2C)cc1`, which EC50 [5] is on record?
Answer: The EC50 was 6.66 µM (active).

Question: And the EC50 (Streptokinase A)?
Answer: Its EC50 is 13.7 µM (active).

Question: And the EC50 (Streptococcus)?
Answer: The EC50 was > 150 µM (not active).

Question: And the AC50 [7]?
Answer: The AC50 was 6.11 µM (active).

Question: And the AC50 [8]?
Answer: Its AC50 is 60.6 µM (active).

Question: What about the AC50 [9] of the same compound?
Answer: The AC50 was 6.57 µM (active).

Question: For `O=C(c1ccc2nccnc2c1)N1CCCC(Nc2ccc(F)c(F)c2)C1` (configuration not stated), which EC50 [3] is on record?
Answer: The EC50 was > 260 µM (inactive).

Question: Which EC50 [5] does the source give for `CN(Cc1ccc(N(C)C)cc1)C(=O)c1cc2ccccc2o1` here?
Answer: The EC50 was > 150 µM (not active).

Question: What about the EC50 (Streptokinase A) of the same compound?
Answer: The EC50 was > 150 µM (not active).

Question: What about the EC50 (Streptococcus) of the same compound?
Answer: The EC50 was > 150 µM (not active).

Question: Which EC50 [3] does the source give for `Cn1c(CO)cnc1SCC(=O)c1ccc(Cl)cc1` here?
Answer: The EC50 was > 260 µM (inactive).

Question: What does the source list for `COc1ccc(O)c(CN2CCC(n3nccc3NC(=O)CCOc3ccccc3)CC2)c1`?
Answer: EC50 [5]: > 150 µM (not active); EC50 (Streptokinase A): > 150 µM (not active); EC50 (Streptococcus): > 150 µM (not active)

Question: Which EC50 [5] does the source give for `COc1ccc(S(=O)(=O)N2CCOC2CNC(=O)C(=O)NCc2ccccc2Cl)cc1` (configuration not stated) here?
Answer: Its EC50 is > 150 µM (not active).

Question: What about the EC50 (Streptokinase A) of the same compound?
Answer: The EC50 was > 150 µM (not active).

Question: What about the EC50 (Streptococcus) of the same compound?
Answer: Its EC50 is > 150 µM (not active).

Question: For `Cc1cccc(NC2(C(F)(F)F)N=C(c3ccccc3)NC2=O)n1` (configuration not stated), which EC50 [4] is on record?
Answer: The EC50 was 71.7 µM (active).

Question: And the AC50 (Cytochrome P450 2C19)?
Answer: The AC50 was 8.91 µM (inconclusive).

Question: And the AC50 (Cytochrome P450 3A4)?
Answer: Its AC50 is 15.8 µM (inconclusive).

Question: What about the AC50 (Cytochrome P450 2C9) of the same compound?
Answer: The AC50 was 12.6 µM (inconclusive).

Question: With `CC1CC1C(=O)OCC(=O)NCc1ccc(Cl)cc1Cl` (configuration not stated) as the compound, how does the EC50 [4] read?
Answer: The EC50 was > 195 µM (not active).

Question: For `CC(=O)OC(C)C(=O)NS(=O)(=O)c1ccc(C)cc1` (configuration not stated), which EC50 [3] is on record?
Answer: Its EC50 is > 260 µM (inactive).

Question: Which results are given for `O=C(C1CCC(CNS(=O)(=O)c2cccs2)CC1)N1CCN(c2ccc(Cl)cc2)CC1` (configuration not stated)?
Answer: AC50 [7]: 1.61 µM (active); AC50 [8]: 2.76 µM (active); AC50 [9]: 16 µM (active)

Question: For `CCCc1nc(NC2CCCCC2)c(C#N)c2c1COC(C)(C)C2`, which AC50 [6] is on record?
Answer: The AC50 was 6.71 µM (active).

Question: Which EC50 [3] does the source give for `COc1cc(/C=N/NC(=S)NC2CC3C=CC2C3)cc(OC)c1OC` (configuration not stated) here?
Answer: Its EC50 is > 260 µM (inactive).

Question: With `CCCOc1ccc(C(=O)NNC(=S)NC(=O)c2ccccc2[N+](=O)[O-])cc1` as the compound, how does the EC50 [5] read?
Answer: Its EC50 is 2.79 µM (active).

Question: What about the EC50 (Streptokinase A) of the same compound?
Answer: The EC50 was > 150 µM (not active).

Question: And the EC50 (Streptococcus)?
Answer: Its EC50 is 10.8 µM (active).

Question: With `Cc1ccc(N2C(=O)NC(NS(=O)(=O)c3ccccc3)(C(F)(F)F)C2=O)cc1` (configuration not stated) as the compound, how does the EC50 [4] read?
Answer: Its EC50 is > 195 µM (not active).

Question: Which EC50 [3] does the source give for `O=[N+]([O-])c1cccc(-c2nnc(CNC3CC3)o2)c1` here?
Answer: The EC50 was > 260 µM (inactive).

Question: With `COC(=O)C1=C(c2ccc(OCc3ccccc3)cc2)C[C@@H]2CC[C@H]1N2C(=O)NCc1ccc(OC)c(OC)c1` as the compound, how does the AC50 [7] read?
Answer: Its AC50 is 19.7 µM (active).

Question: What about the AC50 [9] of the same compound?
Answer: Its AC50 is 30.1 µM (active).

Question: For `Cc1csc(NC(=O)Nc2ccccc2[N+](=O)[O-])n1`, which EC50 [10] is on record?
Answer: Its EC50 is 12.5 µM (active).

Question: And the EC50 (H4)?
Answer: Its EC50 is 94 µM (active).
